From patent US6444829B1, “Pyrrolidine compounds” (Hoffmann-La Roche Inc., priority 2000, dated 2002)

melting point: 64 °C
Compound: CC(=O)N(Cc1ccccc1)NC(=O)[C@@H]1C[C@@H](S)CN1S(=O)(=O)c1ccc2ccccc2c1
